Results from ChEMBL document CHEMBL1201862, “PubChem BioAssay data set” (2004).
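Cells were grown in 96-well plates and exposed to each compound for 48 hours at five concentrations; endpoints were interpolated linearly between bracketing concentrations, or set to the highest concentration if not reached. GI50 is the concentration that inhibits growth by half.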 The source made the active and inactive calls. No stated cut-off is given here; in the data, active = GI50 up to about 1.1 µM and inactive = higher.

Columns and labels:
Experiment in all cases: NCI anticancer screen, dose series, 48 h
ACHN = tested on: ACHN
A549 = tested on: A549
CAKI-1 = tested on: CAKI-1
A498 = tested on: A498
U-251 = tested on: U-251
786-0 = tested on: 786-0
RXF 393 = tested on: RXF 393
NCI-H522 = tested on: NCI-H522
OVCAR-3 = tested on: OVCAR-3
UACC-257 = tested on: UACC-257
SK-MEL-5 = tested on: SK-MEL-5
SK-OV-3 = tested on: SK-OV-3
RPMI-8226 = tested on: RPMI-8226
SNB-19 = tested on: SNB-19
LOX IMVI = tested on: LOX IMVI
HOP-92 = tested on: HOP-92
EKVX = tested on: EKVX

Measured: GI50

COc1cccc2c1C1(O)C2CCCC12OCCCO2 (stereo not drawn)
inactive: ACHN > 100 µM | A549 > 100 µM | CAKI-1 > 100 µM | A498 > 100 µM | U-251 > 100 µM | 786-0 > 100 µM | RXF 393 > 100 µM | NCI-H522 > 100 µM | OVCAR-3 > 100 µM | UACC-257 > 100 µM | SK-MEL-5 > 100 µM | SK-OV-3 > 100 µM | RPMI-8226 > 100 µM | SNB-19 > 100 µM | LOX IMVI > 100 µM

O=c1nc(-c2ccccc2)c2c3c(cccn13)CCC2
inactive: ACHN > 100 µM | A549 > 100 µM | CAKI-1 > 100 µM | A498 92 µM | U-251 > 100 µM | 786-0 > 100 µM | HOP-92 > 100 µM | RXF 393 > 100 µM | NCI-H522 > 100 µM | OVCAR-3 > 100 µM | UACC-257 > 100 µM | SK-MEL-5 > 100 µM | SK-OV-3 > 100 µM | RPMI-8226 > 100 µM | SNB-19 > 100 µM | LOX IMVI > 100 µM

Cc1nc(-n2nc(-c3ccccc3)cc2-c2ccccc2)sc1C(/C=C/c1ccc([N+](=O)[O-])cc1)=N/NC(N)=S
inactive: ACHN 46.1 µM | A549 97.3 µM | CAKI-1 60.3 µM | A498 > 100 µM | U-251 47.2 µM | 786-0 18.2 µM | HOP-92 25.1 µM | RXF 393 54.1 µM | OVCAR-3 38.2 µM | EKVX > 100 µM | UACC-257 78.3 µM | SK-MEL-5 28.8 µM | SK-OV-3 73.5 µM | RPMI-8226 11.9 µM | SNB-19 > 100 µM | LOX IMVI > 10 µM

Cc1cccc(/C=N/N=C(\N)NO)n1
inactive: ACHN 27.3 µM | A549 13.4 µM | CAKI-1 20.8 µM | A498 > 100 µM | U-251 78.7 µM | 786-0 36.8 µM | HOP-92 26.1 µM | RXF 393 > 100 µM | NCI-H522 37.8 µM | OVCAR-3 > 100 µM | EKVX 37.3 µM | UACC-257 > 100 µM | SK-MEL-5 27.5 µM | SK-OV-3 19.9 µM | LOX IMVI 5.73 µM

Nc1ccccc1/C(O)=C1/CCOC1=O
inactive: ACHN > 100 µM | A549 > 100 µM | CAKI-1 > 100 µM | A498 > 100 µM | U-251 > 100 µM | 786-0 > 100 µM | HOP-92 > 100 µM | NCI-H522 > 100 µM | OVCAR-3 > 100 µM | EKVX > 100 µM | UACC-257 > 100 µM | SK-OV-3 > 100 µM | RPMI-8226 > 100 µM | SNB-19 > 100 µM

O=[N+]([O-])C=C1c2ccccc2-c2ccccc21
inactive: ACHN 16.9 µM | A549 19.9 µM | CAKI-1 11.4 µM | A498 19.6 µM | U-251 > 10 µM | 786-0 16.7 µM | RXF 393 17.5 µM | NCI-H522 3.76 µM | OVCAR-3 15.1 µM | EKVX 20.4 µM | UACC-257 19.1 µM | RPMI-8226 2.18 µM | SNB-19 23 µM | LOX IMVI 16.6 µM

COc1ccc(C(O)C(c2ccc(OCc3ccccc3)cc2)c2ccc(OCc3ccccc3)cc2)cc1 (stereo not drawn)
inactive: ACHN > 100 µM | A549 > 100 µM | CAKI-1 > 100 µM | U-251 > 100 µM | 786-0 > 100 µM | HOP-92 > 100 µM | RXF 393 > 100 µM | NCI-H522 > 100 µM | OVCAR-3 > 100 µM | EKVX > 100 µM | SK-MEL-5 > 100 µM | SK-OV-3 > 100 µM | RPMI-8226 > 100 µM | SNB-19 > 100 µM

CCC(C)CN1C(=O)NC(C)(Cc2ccccc2)C1=O (stereo not drawn)
inactive: ACHN > 100 µM | A549 > 100 µM | CAKI-1 > 100 µM | U-251 > 100 µM | 786-0 > 100 µM | HOP-92 > 100 µM | RXF 393 > 100 µM | NCI-H522 > 100 µM | EKVX > 100 µM | UACC-257 > 100 µM | SK-MEL-5 > 100 µM | SNB-19 > 100 µM | LOX IMVI > 100 µM

O=C(CCCC(=O)Nc1ccc(Cl)cc1Cl)CC(=O)c1ccc2ccccc2c1
inactive: ACHN > 100 µM | A549 > 100 µM | CAKI-1 > 100 µM | U-251 > 100 µM | 786-0 > 100 µM | HOP-92 96.6 µM | RXF 393 10.8 µM | OVCAR-3 > 100 µM | EKVX > 100 µM | UACC-257 > 100 µM | SK-MEL-5 > 100 µM | SK-OV-3 > 100 µM | SNB-19 > 100 µM | LOX IMVI > 100 µM

CC1=NN(C(=O)c2ccc([N+](=O)[O-])cc2)C(=O)C1/N=N/c1ccccc1C(=O)O (stereo not drawn)
inactive: ACHN > 100 µM | A549 > 100 µM | CAKI-1 > 100 µM | A498 > 100 µM | U-251 99.1 µM | 786-0 > 100 µM | HOP-92 45 µM | RXF 393 > 100 µM | NCI-H522 79.4 µM | OVCAR-3 > 100 µM | EKVX > 100 µM | UACC-257 > 100 µM | SK-MEL-5 > 100 µM | SK-OV-3 53.6 µM | RPMI-8226 > 100 µM | SNB-19 > 100 µM

O=C(CCCCCCCCCCc1ccccc1)C1=C(O)CCCC1=O
inactive: ACHN 28.1 µM | A549 18.4 µM | CAKI-1 7.85 µM | U-251 29.2 µM | 786-0 31.7 µM | HOP-92 11.3 µM | RXF 393 25.1 µM | NCI-H522 27 µM | OVCAR-3 32.8 µM | EKVX 41.3 µM | UACC-257 34 µM | SK-MEL-5 18.1 µM | SK-OV-3 35.6 µM | RPMI-8226 29 µM | SNB-19 46.2 µM | LOX IMVI 26.2 µM

CC1(C)C(=O)C(O)=CC2C1=CCC1C2(C)C(=O)CC2(C)C(C(C)(O)C(=O)CC(O)C(C)(C)O)C(O)CC12C (stereo not drawn)
inactive: ACHN 2.3 µM | A549 3.04 µM | CAKI-1 2.12 µM | A498 2 µM | U-251 2.65 µM | 786-0 2.45 µM | HOP-92 2.38 µM | RXF 393 2.56 µM | NCI-H522 2.71 µM | OVCAR-3 3.28 µM | EKVX 10 µM | UACC-257 3.52 µM | SK-MEL-5 2.84 µM | SK-OV-3 3.72 µM | RPMI-8226 3.4 µM | SNB-19 3.13 µM | LOX IMVI 2.5 µM

Cc1cc(-c2ccccc2)nc(Nc2cc3ccccc3[nH]2)n1
inactive: ACHN > 100 µM | A549 > 100 µM | CAKI-1 > 100 µM | A498 > 100 µM | U-251 > 100 µM | 786-0 > 100 µM | HOP-92 22.2 µM | NCI-H522 > 100 µM | OVCAR-3 > 100 µM | EKVX 89.3 µM | UACC-257 > 100 µM | SK-MEL-5 > 100 µM | SK-OV-3 > 100 µM | RPMI-8226 > 100 µM | SNB-19 > 100 µM | LOX IMVI > 100 µM

N=C(c1ccccc1)N(O)C1CCCCC1
inactive: A549 > 100 µM | CAKI-1 > 100 µM | U-251 > 100 µM | 786-0 > 100 µM | HOP-92 > 100 µM | RXF 393 > 100 µM | NCI-H522 > 100 µM | EKVX > 100 µM | UACC-257 > 100 µM | SK-MEL-5 > 100 µM | SNB-19 > 100 µM | LOX IMVI > 100 µM

CN(/N=C\c1ccnc2ccccc12)c1ccc([N+](=O)[O-])cc1
inactive: ACHN > 100 µM | A549 > 100 µM | CAKI-1 > 100 µM | A498 > 100 µM | U-251 8.77 µM | 786-0 > 100 µM | HOP-92 > 100 µM | RXF 393 > 10 µM | OVCAR-3 > 100 µM | EKVX > 100 µM | UACC-257 > 100 µM | SK-MEL-5 53.8 µM | SK-OV-3 > 100 µM | RPMI-8226 8.26 µM | SNB-19 > 100 µM | LOX IMVI 8.2 µM

Cc1cccc(C(C)(C)C)c1NC(=O)CC1C(=O)Nc2ccccc2[S+]1[O-] (stereo not drawn)
inactive: ACHN 31.4 µM | A549 37 µM | CAKI-1 39.3 µM | U-251 58.9 µM | 786-0 > 100 µM | HOP-92 68.7 µM | NCI-H522 39.4 µM | OVCAR-3 49.7 µM | UACC-257 61.9 µM | RPMI-8226 34.3 µM | SNB-19 57.1 µM | LOX IMVI 55.7 µM

COc1ccc(Cc2cc3c(cc2OCC(=O)O)OCO3)cc1
inactive: ACHN > 100 µM | A549 > 100 µM | CAKI-1 > 100 µM | A498 > 100 µM | 786-0 > 100 µM | HOP-92 > 100 µM | RXF 393 > 100 µM | NCI-H522 > 100 µM | OVCAR-3 > 100 µM | EKVX > 100 µM | UACC-257 > 100 µM | SK-MEL-5 > 100 µM | SK-OV-3 > 100 µM | RPMI-8226 > 100 µM | SNB-19 > 100 µM | LOX IMVI > 100 µM

COC(=O)c1c(C(=O)OC)c(-c2ccccc2)n(-c2ccccc2)c(=O)c1-c1ccccc1
inactive: A549 80.4 µM | CAKI-1 51.2 µM | A498 > 100 µM | U-251 42.9 µM | 786-0 32.4 µM | HOP-92 24.3 µM | RXF 393 20.9 µM | NCI-H522 94.8 µM | OVCAR-3 51.8 µM | EKVX > 100 µM | UACC-257 71.8 µM | SK-MEL-5 > 100 µM | SK-OV-3 53.5 µM | RPMI-8226 > 100 µM | SNB-19 67.9 µM | LOX IMVI 84.5 µM
